Laboratory results taken from the supplement of paper PMC11451515.

System: NOMO1
Experiment: cell viability relative to DMSO control; higher = less cytotoxic
Settings: 48 h
Outline: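 Viability is a per-plate percentage relative to DMSO wells, with cell-free wells as background. CellTiter-Glo One luminescence was read after 48 h at 37°C on 1536-well plates (5 μl) of NOMO1 or SEM (500 cells/well) or P12-Ichikawa (1000 cells/well) leukemia cells. The cells had been adapted for at least four passages in each medium and pin-dosed with library compounds in DMSO from 47 μM to 0.79 nM in 11 threefold steps.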

[1] = HPLM + 10% dialyzed FBS, 0.000781 µM
[2] = HPLM + 10% dialyzed FBS, 0.00234 µM
[3] = HPLM + 10% dialyzed FBS, 0.00702 µM
[4] = HPLM + 10% dialyzed FBS, 0.0211 µM
[5] = HPLM + 10% dialyzed FBS, 0.0632 µM
[6] = HPLM + 10% dialyzed FBS, 0.19 µM
[7] = HPLM + 10% dialyzed FBS, 0.569 µM
[8] = HPLM + 10% dialyzed FBS, 1.71 µM
[9] = HPLM + 10% dialyzed FBS, 5.12 µM
[10] = HPLM + 10% dialyzed FBS, 15.4 µM
[11] = HPLM + 10% dialyzed FBS, 46.1 µM
[12] = RPMI 5 mM glucose + 10% FBS, 0.000781 µM
[13] = RPMI 5 mM glucose + 10% FBS, 0.00234 µM
[14] = RPMI 5 mM glucose + 10% FBS, 0.00702 µM
[15] = RPMI 5 mM glucose + 10% FBS, 0.0211 µM
[16] = RPMI 5 mM glucose + 10% FBS, 0.0632 µM
[17] = RPMI 5 mM glucose + 10% FBS, 0.19 µM
[18] = RPMI 5 mM glucose + 10% FBS, 0.569 µM
[19] = RPMI 5 mM glucose + 10% FBS, 1.71 µM
[20] = RPMI 5 mM glucose + 10% FBS, 5.12 µM
[21] = RPMI 5 mM glucose + 10% FBS, 15.4 µM
[22] = RPMI 5 mM glucose + 10% FBS, 46.1 µM
[23] = RPMI 5 mM glucose + 10% dialyzed FBS, 0.000781 µM
[24] = RPMI 5 mM glucose + 10% dialyzed FBS, 0.00234 µM
[25] = RPMI 5 mM glucose + 10% dialyzed FBS, 0.00702 µM
[26] = RPMI 5 mM glucose + 10% dialyzed FBS, 0.0211 µM
[27] = RPMI 5 mM glucose + 10% dialyzed FBS, 0.0632 µM
[28] = RPMI 5 mM glucose + 10% dialyzed FBS, 0.19 µM
[29] = RPMI 5 mM glucose + 10% dialyzed FBS, 0.569 µM
[30] = RPMI 5 mM glucose + 10% dialyzed FBS, 1.71 µM
[31] = RPMI 5 mM glucose + 10% dialyzed FBS, 5.12 µM
[32] = RPMI 5 mM glucose + 10% dialyzed FBS, 15.4 µM
[33] = RPMI 5 mM glucose + 10% dialyzed FBS, 46.1 µM

SMILES | cell viability [1] [%] | cell viability [2] [%] | cell viability [3] [%] | cell viability [4] [%] | cell viability [5] [%] | cell viability [6] [%] | cell viability [7] [%] | cell viability [8] [%] | cell viability [9] [%] | cell viability [10] [%] | cell viability [11] [%] | cell viability [12] [%] | cell viability [13] [%] | cell viability [14] [%] | cell viability [15] [%] | cell viability [16] [%] | cell viability [17] [%] | cell viability [18] [%] | cell viability [19] [%] | cell viability [20] [%] | cell viability [21] [%] | cell viability [22] [%] | cell viability [23] [%] | cell viability [24] [%] | cell viability [25] [%] | cell viability [26] [%] | cell viability [27] [%] | cell viability [28] [%] | cell viability [29] [%] | cell viability [30] [%] | cell viability [31] [%] | cell viability [32] [%] | cell viability [33] [%]
N[S+](=O)([O-])c1cc2c(cc1Cl)NC(C(Cl)Cl)N[S+]2(=O)[O-] (centres undefined) | 96.9 | 107 | 113 | 117 | 111 | 135 | 136 | 130 | 121 | 125 | 124 | 105 | 96.1 | 105 | 107 | 102 | 103 | 123 | 108 | 102 | 125 | 110 | 112 | 114 | 109 | 118 | 112 | 118 | 120 | 126 | 125 | 141 | 120
C[C@H](CCC(=O)O)[C@H]1CCC2C3C[C@H](O)[C@@H]4C[C@H](O)CC[C@]4(C)C3CC[C@@]21C (some centres undefined) | 112 | 123 | 139 | 133 | 119 | 121 | 97.6 | 104 | 114 | 123 | 110 | 113 | 106 | 121 | 119 | 119 | 116 | 96.7 | 106 | 113 | 108 | 103 | 102 | 126 | 118 | 108 | 122 | 109 | 107 | 94.7 | 116 | 105 | 110
O=C(Nc1c[nH]nc1-c1nc2cc(CN3CCOCC3)ccc2[nH]1)NC1CC1 | 91.3 | 111 | 113 | 95.6 | 81.1 | 102 | 104 | 104 | 97.9 | 51 | 3.89 | 85.9 | 103 | 97.1 | 85.5 | 56.3 | 55.3 | 78.7 | 84.9 | 89.4 | 61.2 | 4.23 | 88.3 | 102 | 92.6 | 93.7 | 67.1 | 66.7 | 84 | 83 | 86.7 | 54.5 | 4.36
CCN1C[C@H](C)[N]2C(=C(O)C3=C2\C(=N/N(CC4=CC=C(F)C(=C4)Cl)C3=O)C(=O)NC)C1=O | 107 | 125 | 118 | 126 | 120 | 131 | 98.2 | 92.5 | 96.5 | 58 | 11.9 | 107 | 98.3 | 111 | 111 | 104 | 96 | 97.7 | 99.2 | 96.3 | 80.3 | 11.4 | 106 | 115 | 107 | 121 | 118 | 98.4 | 102 | 111 | 92.6 | 65.6 | 13.9
COC(=O)Nc1nc2cc(C(=O)c3ccc(F)cc3)ccc2[nH]1 | 103 | 113 | 102 | 104 | 102 | 103 | 84.7 | 54.9 | 32.9 | 52.2 | 40.3 | 107 | 98.1 | 91.4 | 95.3 | 101 | 97.5 | 98.6 | 83.8 | 34.8 | 83.8 | 83.9 | 99.3 | 103 | 94.1 | 107 | 89.3 | 93 | 90.9 | 65.3 | 31.9 | 74.1 | 72.9
CC(C)(S)[C@@H](N)C(=O)O | 111 | 118 | 97.1 | 136 | 132 | 111 | 109 | 133 | 114 | 128 | 80.6 | 103 | 106 | 113 | 103 | 118 | 115 | 103 | 105 | 115 | 111 | 106 | 97.5 | 94.7 | 112 | 115 | 124 | 117 | 108 | 118 | 118 | 108 | 62.1
CC[S+](=O)([O-])Nc1ccc2c(c1)/C(=C(/Nc1ccc(CN3CCCCC3)cc1)c1ccccc1)C(=O)N2 | 111 | 114 | 111 | 110 | 113 | 85 | 79.3 | 59.1 | 45.9 | 33.8 | 10.4 | 104 | 102 | 111 | 117 | 99.3 | 49.3 | 47.5 | 53.1 | 47.6 | 39.9 | 18.5 | 99.2 | 102 | 121 | 101 | 104 | 62 | 63.8 | 54.5 | 44.6 | 37.1 | 18.2
COc1ccc(C(=O)c2c(C)n(CCN3CCOCC3)c3ccccc23)cc1 | 87.4 | 99.9 | 98.1 | 108 | 107 | 129 | 107 | 104 | 95.2 | 90.2 | 87.6 | 91.7 | 92.5 | 94.4 | 91.7 | 85.4 | 99.6 | 82.9 | 97.1 | 95.7 | 88.6 | 93.7 | 87.1 | 84.2 | 92.5 | 88.5 | 104 | 76.9 | 98.9 | 92 | 87.9 | 86.6 | 92
O=C/1NC(=O)C(=C1C2=CN=C3C=CC=C[N]23)/C4=C[N]5CCN(CC6=C5C4=CC=C6)C(=O)N7CCOCC7 | – | – | – | – | – | – | – | – | – | – | – | 109 | 121 | 137 | 136 | 140 | 146 | 144 | 127 | 144 | 128 | 144 | – | – | – | – | – | – | – | – | – | – | –
CCN(CCO)CCCOc1ccc2c(Nc3cc(CC(=O)Nc4cccc(F)c4)[nH]n3)ncnc2c1 | 110 | 128 | 102 | 114 | 106 | 85.7 | 82.7 | 76.2 | 77.8 | 81.6 | 45.1 | 113 | 105 | 120 | 113 | 98.5 | 65.6 | 50.5 | 44.7 | 40.9 | 54.1 | 54 | 110 | 110 | 105 | 111 | 104 | 63.8 | 52.6 | 50.2 | 51.7 | 56.9 | 80.6
CC[N+](CC)(CC)CCOc1cccc(OCC[N+](CC)(CC)CC)c1OCC[N+](CC)(CC)CC | – | – | – | – | – | – | – | – | – | – | – | 106 | 118 | 108 | 118 | 136 | 110 | 98 | 98.9 | 104 | 112 | 75.7 | 116 | 118 | 115 | 109 | 127 | 114 | 99.4 | 100 | 111 | 101 | 91
CC1=C(/C=C/C(C)=C/C=C/C(C)=C\C(=O)O)C(C)(C)CCC1 | 85.3 | 99.5 | 85.6 | 92.5 | 105 | 96.2 | 97.1 | 84.3 | 84.2 | 83.4 | 97.4 | 75.9 | 82.4 | 78.7 | 86.3 | 89.5 | 97.2 | 93.6 | 84.1 | 84.3 | 86.6 | 80.5 | 82 | 90.6 | 86 | 102 | 93.2 | 87.9 | 95.1 | 87.2 | 76.6 | 87.1 | 77.3
C=C1C(=O)OC(CCCCCCCC)C1C(=O)O (centres undefined) | 107 | 125 | 123 | 135 | 135 | 139 | 130 | 125 | 104 | 136 | 118 | 113 | 114 | 112 | 122 | 131 | 127 | 119 | 132 | 129 | 127 | 124 | 109 | 123 | 113 | 130 | 135 | 136 | 125 | 120 | 121 | 129 | 120
CN(C)c1ccc2nc3ccc(N(C)C)cc3[s+]c2c1 | 115 | 94.5 | 122 | 97.9 | 106 | 90.7 | 102 | 91.1 | 73.2 | 25.9 | 12.1 | 96 | 91.9 | 89.2 | 92.1 | 93.4 | 93.6 | 100 | 86.4 | 78.1 | 7.62 | 3.06 | 102 | 99.7 | 99.6 | 87.4 | 94.2 | 86.7 | 102 | 86.5 | 65 | 10.1 | 3.9
CCOc1cc2ncc(C#N)c(Nc3ccc(F)c(Cl)c3)c2cc1NC(=O)/C=C/CN(C)C | 120 | 133 | 111 | 114 | 127 | 84.9 | 80.9 | 57 | 50.8 | 42.7 | 4.8 | 118 | 128 | 116 | 124 | 123 | 118 | 102 | 85.6 | 66.2 | 76.3 | 10.4 | – | – | – | – | – | – | – | – | – | – | –
CC1(CN2CCC(n3c(=O)[nH]c4ccccc43)CC2)OCc2ccccc2-n2cccc21 (centres undefined) | 128 | 108 | 102 | 105 | 96.8 | 105 | 104 | 108 | 102 | 59.3 | 75.6 | 86.7 | 103 | 95.4 | 91.4 | 104 | 107 | 91.3 | 96 | 92.5 | 87.8 | 84 | 105 | 111 | 103 | 93.2 | 96.7 | 98.2 | 95.9 | 92.4 | 90.9 | 79.5 | 68.5
